Source: patent US8952169B2 (Genentech, Inc., priority 2012, dated 2015)

Biological target: hNav1.7 (Homo sapiens (Human), UniProt Q15858)
Assay: Tritiated aryl sulfonamide binding to membranes from cells expressing hNav1.7 and the β1 subunit (competitive binding)
Settings: membranes with hNav1.7 and β1 subunit; [3H]compound displacement, 18 h, room temperature; read-out: NaV1.7 395 Memb Binding (IC50)
Protocol: Tritiated Aryl Sulfonamide Binding to Membranes Isolated from Cells that Heterologously Express hNav1.7 and the β1 Subunit
Preparation of membranes containing recombinantly expressed sodium channels: Frozen recombinant cell pellets were thawed on ice and diluted to 4 times the cell pellet weight with ice cold 50 mM Tris HCl, pH 7.4 buffer. The cell suspensions were homogenized on ice using a motorized glass dounce homogeniser. Homogenates were further diluted 8.4 times with ice cold 50 mM Tris HCl, pH 7.4 buffer and then centrifuged at 200×g at 4° C. for 15 min. The supernatants were collected and centrifuged at 10000×g at 4° C. for 50 min. The pellets were then re-suspended in 100 mM NaCl, 20 mM Tris HCl, pH 7.4 buffer containing 1% v/v protease inhibitors (Calbiochem) and re-homogenized on ice. The homogenized membranes were then processed through a syringe equipped with a 26 gauge needle. Protein concentrations were determined by Bradford Assay and the membranes were stored at −80° C.
Radioligand Binding Studies: Saturation experiments. A representative compound of formula (I) was tritiated. Three tritiums were incorporated in place of methyl hydrogens to generate [^3H]compound. Binding of this radioligand was preformed in 5 mL borosilicate glass test tubes at room temperature. Binding was initiated by adding membranes to increasing concentrations of [^3H]compound in 100 mM NaCl, 20 mM Tris HCl, pH 7.4 buffer containing 0.01% w/v bovine serum albumin (BSA) for 18 h. Non-specific binding was determined in the presence of 1 μM unlabelled compound. After 18 h, the reactants were filtered through GF/C glass fiber filters presoaked in 0.5% w/v polyethylene imine. […] [^3H]compound bound to filters was quantified by liquid scintillation counting.
Competitive binding experiments. Binding reactions were preformed in 96-well polypropylene plates at room temperature for 18 h. In 360 μL, membranes were incubated with 100 μM [^3H]compound and increasing concentrations of Test Compound. Non-specific binding was defined in the presence of 1 μM unlabelled compound. Reactions were transferred and filtered through 96-well glass fiber/C filter plates presoaked with 0.5% polyethylene imine. The filtered reactions were washed 5 times with 200 L ice cold buffer containing 0.25% BSA. Bound radioactivity was determined by liquid scintillation counting.
Data Analysis: For saturation experiments, non-specific binding was subtracted from total binding to provide specific binding and these values were recalculated in terms of pmol ligand bound per mg protein. Saturation curves were constructed and dissociation constants were calculated using the single site ligand binding model: Beq=(Bmax*X)/(X+Kd), where Beq is the amount of ligand bound at equilibrium, Bmax is the maximum receptor density, Kd is the dissociation constant for the ligand, and X is the free ligand concentration.

hNav1.7, sequence (Q15858 whole entry, looked up): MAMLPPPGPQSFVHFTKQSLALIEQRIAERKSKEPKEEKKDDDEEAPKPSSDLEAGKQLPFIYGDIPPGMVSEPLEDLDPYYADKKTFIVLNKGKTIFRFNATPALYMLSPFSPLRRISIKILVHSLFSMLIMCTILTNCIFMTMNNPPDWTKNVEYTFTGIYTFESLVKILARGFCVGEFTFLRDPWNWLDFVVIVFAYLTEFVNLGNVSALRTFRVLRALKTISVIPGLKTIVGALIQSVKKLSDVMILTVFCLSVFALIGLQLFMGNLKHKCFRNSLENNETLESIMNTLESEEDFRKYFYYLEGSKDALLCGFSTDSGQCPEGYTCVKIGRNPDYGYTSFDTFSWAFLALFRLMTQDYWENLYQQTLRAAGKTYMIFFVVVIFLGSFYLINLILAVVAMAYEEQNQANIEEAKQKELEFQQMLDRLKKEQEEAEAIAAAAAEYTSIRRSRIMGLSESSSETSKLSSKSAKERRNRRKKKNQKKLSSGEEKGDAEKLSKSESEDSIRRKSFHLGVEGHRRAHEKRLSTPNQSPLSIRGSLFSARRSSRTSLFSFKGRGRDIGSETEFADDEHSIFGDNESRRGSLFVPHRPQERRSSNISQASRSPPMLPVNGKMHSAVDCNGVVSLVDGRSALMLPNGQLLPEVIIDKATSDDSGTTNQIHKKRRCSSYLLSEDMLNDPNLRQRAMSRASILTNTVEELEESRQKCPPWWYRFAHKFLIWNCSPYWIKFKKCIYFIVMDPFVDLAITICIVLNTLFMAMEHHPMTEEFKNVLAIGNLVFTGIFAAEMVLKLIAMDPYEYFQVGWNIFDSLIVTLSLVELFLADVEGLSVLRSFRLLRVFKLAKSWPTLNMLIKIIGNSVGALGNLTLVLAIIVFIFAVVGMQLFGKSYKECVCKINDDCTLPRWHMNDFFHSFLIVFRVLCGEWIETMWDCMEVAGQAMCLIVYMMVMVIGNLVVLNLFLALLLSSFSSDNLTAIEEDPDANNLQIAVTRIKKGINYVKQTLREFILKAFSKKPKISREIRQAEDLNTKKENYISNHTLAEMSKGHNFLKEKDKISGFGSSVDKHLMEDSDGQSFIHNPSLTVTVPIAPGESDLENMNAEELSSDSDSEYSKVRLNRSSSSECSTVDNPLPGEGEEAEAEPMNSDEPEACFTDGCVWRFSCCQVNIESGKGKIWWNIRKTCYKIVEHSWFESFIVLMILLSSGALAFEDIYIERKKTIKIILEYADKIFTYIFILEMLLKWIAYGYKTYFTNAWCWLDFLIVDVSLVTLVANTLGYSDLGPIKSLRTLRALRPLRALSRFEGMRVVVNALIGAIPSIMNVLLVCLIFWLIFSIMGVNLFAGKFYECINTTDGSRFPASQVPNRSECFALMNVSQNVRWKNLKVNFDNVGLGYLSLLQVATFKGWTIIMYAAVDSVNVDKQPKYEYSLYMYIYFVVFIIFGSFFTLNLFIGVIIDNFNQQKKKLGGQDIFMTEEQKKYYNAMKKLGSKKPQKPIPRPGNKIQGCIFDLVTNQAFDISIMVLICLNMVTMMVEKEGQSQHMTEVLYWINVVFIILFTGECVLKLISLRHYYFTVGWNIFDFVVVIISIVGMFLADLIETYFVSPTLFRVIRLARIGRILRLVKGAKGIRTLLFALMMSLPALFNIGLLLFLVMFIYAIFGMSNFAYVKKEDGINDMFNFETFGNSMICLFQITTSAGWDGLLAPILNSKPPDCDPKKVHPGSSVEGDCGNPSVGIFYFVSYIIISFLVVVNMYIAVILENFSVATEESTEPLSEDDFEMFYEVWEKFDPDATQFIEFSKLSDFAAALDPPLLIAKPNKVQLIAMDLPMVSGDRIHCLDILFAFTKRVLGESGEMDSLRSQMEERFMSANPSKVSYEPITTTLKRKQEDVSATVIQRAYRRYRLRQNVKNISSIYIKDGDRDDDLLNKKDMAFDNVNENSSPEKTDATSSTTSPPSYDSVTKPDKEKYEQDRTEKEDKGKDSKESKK
hNav1.7, sequence (Q07699 whole entry partner, looked up): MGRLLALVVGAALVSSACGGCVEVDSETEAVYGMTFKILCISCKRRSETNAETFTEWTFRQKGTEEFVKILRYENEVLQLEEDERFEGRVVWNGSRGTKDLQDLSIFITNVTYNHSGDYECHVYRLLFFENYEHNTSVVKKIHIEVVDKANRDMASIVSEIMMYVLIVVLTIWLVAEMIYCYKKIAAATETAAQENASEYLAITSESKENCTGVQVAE

Row | IC50 [nM] | Molecule
1 | 9990 | CC(C)(C)OC(=O)N1CCCC(COc2cc(F)c(C(=O)NS(C)(=O)=O)cc2F)C1 (centres unmarked)
2 | 6860 | CS(=O)(=O)NC(=O)c1cc(F)c(OCCC2CC2)cc1F
3 | 90 | CS(=O)(=O)NC(=O)c1ccc(OCCC23CC4CC(CC(C4)C2)C3)c(Cl)c1
4 | 190 | CS(=O)(=O)NC(=O)c1cc(Cl)c(Oc2ccc3c(c2)CCCC3)cc1F
5 | 80 | O=C(NS(=O)(=O)N1CCC1)c1cc(C2CC2)c(OCC23CC4CC(CC(CO)(C4)C2)C3)cc1F
6 | 30 | O=C(NS(=O)(=O)N1CCC1)c1cc(Cl)c(OCC2(C(F)(F)F)CCCC2)cc1F
7 | 3 | CC1(COc2cc(F)c(C(=O)NS(=O)(=O)N3CCC3)cc2C2CC2)CCCCC1
8 | 35 | O=C(NS(=O)(=O)N1CCC1)c1cc(C2CC2)c(OCC23CC4CC(C2)CC(OC(=O)C(F)(F)F)(C4)C3)cc1F
9 | 20 | CNS(=O)(=O)NC(=O)c1cc(C2CC2)c(OCC2(C(F)(F)F)CCCCC2)cc1F
10 | 130 | CNS(=O)(=O)NC(=O)c1cc(C2CC2)c(OCC2CCC(F)(F)CC2)cc1F
11 | 36 | CC(C)(F)c1cc(C(=O)NS(=O)(=O)N2CCC2)c(F)cc1OCC12CC3CC(CC(C3)C1)C2
12 | 11 | O=C(NS(=O)(=O)C1CC1)c1cc(C2CC2)c(OCC2CC3CC3C2)cc1F (centres unmarked)
13 | 40 | O=C(NS(=O)(=O)N1CC2(CCO2)C1)c1cc(C2CC2)c(OCC23CC4CC(CC(C4)C2)C3)cc1F
14 | 210 | [2H]C1([2H])C([2H])([2H])C([2H])([2H])C([2H])(COc2cc(F)c(C(=O)NS(C)(=O)=O)cc2Cl)C([2H])([2H])C1([2H])[2H]
15 | 10000 | CS(=O)(=O)NC(=O)c1cc(Cl)c(C(=O)NC23CC4CC(CC(C4)C2)C3)cc1F
16 | 10000 | CC1(C)C(COc2cc(F)c(C(=O)NS(C)(=O)=O)cc2Cl)C1(C)C [listing 1 of 2 here]
17 | 10000 | CS(=O)(=O)NC(=O)c1cc(F)c(OCC2CCCNC2)cc1F (centres unmarked)
18 | 140 | CS(=O)(=O)NC(=O)c1cc(Cl)c(OCC2CCCCC2)cc1F
19 | 140 | CS(=O)(=O)NC(=O)c1cc(Cl)c(OCCC2CCCC2)cc1F
20 | 200 | O=C(NS(=O)(=O)N1CCC1)c1cc(Cl)c(OCC2CC3C(C2)C3(F)F)cc1F (centres unmarked)

Row | IC50 [nM] | Molecule
21 | 190 | CN(C)S(=O)(=O)NC(=O)c1cc(Cl)c(OC2C3CC4CC(C3)CC2C4)cc1F (centres unmarked)
22 | 603 | COC12CC3CC(CC(COc4cc(F)c(C(=O)NS(C)(=O)=O)cc4Cl)(C3)C1)C2
23 | 5 | CS(=O)(=O)NC(=O)c1cc(C2CC2)c(COC2C3CC4CC(C3)CC2C4)cc1F (centres unmarked)
24 | 9 | CS(=O)(=O)NC(=O)c1ccc(OCC23CC4CC(CC(C4)C2)C3)c(C2CCC2)c1
25 | 6 | CS(=O)(=O)NC(=O)c1cc(Cl)c(COC2C3CC4CC(C3)CC2C4)cc1F (centres unmarked)
26 | 58 | CC1(C)[C@@H]2CC[C@@H](COc3cc(F)c(C(=O)NS(C)(=O)=O)cc3Cl)[C@H]1C2
27 | 26 | CNS(=O)(=O)NC(=O)c1cc(Cl)c(COc2ccc3c(c2)CC(C)(C)CC3)cc1F
28 | 65 | CNS(=O)(=O)NC(=O)c1cc(Cl)c(COc2ccc3c(c2)CCC(C)(C)C3)cc1F
29 | 2.1 | CNS(=O)(=O)NC(=O)c1cc(C2CC2)c(OCC23CC4CC(CC(C4)C2)C3)cc1F
30 | 170 | CNS(=O)(=O)NC(=O)c1cc(Cl)c(COc2ccc3c(c2)CCC(C)(C)O3)cc1F
31 | 180 | CNS(=O)(=O)NC(=O)c1cc(Cl)c(COc2ccc3c(c2)OC(C)(C)CC3)cc1F
32 | 130 | O=C(NS(=O)(=O)CCO)c1cc(Cl)c(OCC23CC4CC(CC(C4)C2)C3)cc1F
33 | 97 | CNS(=O)(=O)NC(=O)c1cc(Cl)c(OCC23CC4CC(CC(C4)C2)C3)cc1F
34 | 21 | O=C(NS(=O)(=O)N1CCC1)c1cc(Cl)c(OCC23CC4CC(CC(C4)C2)C3)cc1F
35 | 190 | O=C(NS(=O)(=O)c1c[nH]cn1)c1cc(Cl)c(OCC23CC4CC(CC(C4)C2)C3)cc1F
36 | 55 | O=C(NS(=O)(=O)N1CCOCC1)c1cc(Cl)c(OCC23CC4CC(CC(C4)C2)C3)cc1F
37 | 770 | Cc1nnn(C23CC4CC(CC(COc5cc(F)c(C(=O)NS(C)(=O)=O)cc5Cl)(C4)C2)C3)n1
38 | 190 | CN(C)S(=O)(=O)NC(=O)c1cc(Cl)c(COc2ccc3c(c2)OC(C)(C)CC3)cc1F
39 | 86 | CN(C)S(=O)(=O)NC(=O)c1cc(Cl)c(COc2ccc3c(c2)CCC(C)(C)C3)cc1F
40 | 33 | CCCCCC12CCC(COc3cc(F)c(C(=O)NS(=O)(=O)N(C)C)cc3Cl)(CC1)CC2

Row | IC50 [nM] | Molecule
41 | 1680 | CN(C)S(=O)(=O)NC(=O)c1cc(Cl)c(OCC2(F)CCCCC2)cc1F
42 | 122 | CS(=O)(=O)NC(=O)c1cc(Cl)c(OCC2(C(F)(F)F)CCC2)cc1F
43 | 106 | CN(C)S(=O)(=O)NC(=O)c1cc(Cl)c(COc2ccc3c(c2)CC(C)(C)CC3)cc1F
44 | 16.2 | CN(C)S(=O)(=O)NC(=O)c1ccc(OCC23CC4CC(CC(C4)C2)C3)c(C2CC2)c1
45 | 16 | CS(=O)(=O)NC(=O)c1cc(Cl)c(COC23CC4CC(CC(C4)C2)C3)cc1F
46 | 81 | CN(C)S(=O)(=O)NC(=O)c1cc(Cl)c(OCC2CCC3(CCC3)CC2)cc1F
47 | 94 | CC1(C)C(COc2cc(F)c(C(=O)NS(C)(=O)=O)cc2Cl)C1(C)C [listing 2 of 2 here]
48 | 86 | CS(=O)(=O)NC(=O)c1cc(Cl)c(OC[C@H]2CC[C@@H](C(F)(F)F)CC2)cc1F
49 | 1200 | COC(=O)C12CC3CC(C1)C(Oc1cc(F)c(C(=O)NS(C)(=O)=O)cc1Cl)C(C3)C2 (single isomer, unassigned) [Example 450]
50 | 270 | COC(=O)C12CC3CC(C1)C(Oc1cc(F)c(C(=O)NS(C)(=O)=O)cc1Cl)C(C3)C2 (single isomer, unassigned) [Example 451]
51 | 7100 | CNS(=O)(=O)NC(=O)c1cc(Cl)c(OC2C3CC4CC2CC(C(=O)OC)(C4)C3)cc1F (single isomer, unassigned) [Example 452]
52 | 950 | CNS(=O)(=O)NC(=O)c1cc(Cl)c(OC2C3CC4CC2CC(C(=O)OC)(C4)C3)cc1F (single isomer, unassigned) [Example 453]
53 | 40 | CS(=O)(=O)NC(=O)c1cc(Cl)c(OC2C3CC4CC(C3)CC2C4)cc1F (centres unmarked) [Example 9]
54 | 29 | CS(=O)(=O)NC(=O)c1cc(Cl)c(OCCC23CC4CC(CC(C4)C2)C3)cc1F [Example 11]
55 | 10000 | CS(=O)(=O)NC(=O)c1ccc(CNC23CC4CC(CC(C4)C2)C3)c(Cl)c1 [Example 17]
56 | 10000 | CS(=O)(=O)NC(=O)c1ccc(OCC23CC4CC(CC(O)(C4)C2)C3)c(Cl)c1 [Example 24]
57 | 29 | CS(=O)(=O)NC(=O)c1cc(Cl)c(OCC2CCC3(CC2)CC3)cc1F [Example 50]
58 | 100 | O=C(NS(=O)(=O)N1CCC1)c1ccc(OCC23CC4CC(CC(C4)C2)C3)c(C(F)(F)F)c1 [Example 53]
59 | 480 | COc1cc(OCC23CC4CC(CC(C4)C2)C3)c(Cl)cc1C(=O)NS(C)(=O)=O [Example 56]
60 | 58 | CS(=O)(=O)NC(=O)c1ccc(OCC23CC4CC(CC(C4)C2)C3)c(C(F)(F)F)c1 [Example 62]

Row | Molecule | IC50 [nM]
61 | CC1(COc2cc(F)c(C(=O)NS(C)(=O)=O)cc2C2CC2)CCC(F)(F)CC1 | 18
62 | 5-chloro-4-((4,4-difluorocyclohexyl)methoxy)-2-fluoro-N-(methylsulfonyl)benzamide [Example 42] | 44
63 | 5-chloro-N—(N,N-dimethylsulfamoyl)-2-fluoro-4-((4-pentylbicyclo[2.2.2]octan-1-yl)-methoxy)benzamide [Example 91] | 1210
64 | 5-cyclopropyl-4-((4,4-difluorocyclohexyl)methoxy)-2-fluoro-N-((3-fluoroazetidin-1-yl)sulfonyl)benzamide [Example 212] | 2300

Same assay, conditions: read-out: NaV1.7 395 Memb Binding (IC50)

Row | Molecule | IC50 [nM]
65 | CS(=O)(=O)NC(=O)c1ccc(C(O)C2C3CC4CC(C3)CC2C4)c(Cl)c1 (centres unmarked) | 1200
66 | CS(=O)(=O)NC(=O)c1cc(F)c(OCC2CCCO2)cc1F (centres unmarked) | 10000
67 | 4-((1-((4-chlorophenyl)(phenyl)methyl)azetidin-3-yl)-methoxy)-5-cyclopropyl-2-fluoro-N-(methylsulfonyl)benzamide [Example 398] | 6
68 | 5-cyclopropyl-4-((4,4-difluorocyclohexyl)methoxy)-2-fluoro-N-(N-methylsulfamoyl)benzamide [Example 214] | 900
